For experiment [1], the system named is E. coli S30 extract (bacterial protein synthesis). Kind of experiment: E. coli S30 extract coupled transcription-translation luciferase assay (inhibition of bacterial protein synthesis). The class given is biochemical. The conditions noted are these: % inhibition @ 1 μM, read-out: S30 IC50 (μM/% inhib.). The method in brief:
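Cell-free coupled transcription-translation in E. coli S30 circular-DNA extract, with pBESTluc plasmid as template and complete amino acid mix. Eight 2-fold compound dilutions were incubated with the extract 1 h at 37 °C, chilled, then luciferase luminescence was read. % inhibition was taken relative to no-inhibitor wells; no-DNA wells gave background.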

The target of experiment [2] is Rabbit Reticulocyte Lysate (eukaryotic protein synthesis). As to the kind of experiment: Rabbit reticulocyte lysate luciferase assay (inhibition of eukaryotic protein synthesis). In kind it is biochemical. The settings on record: % inhibition @ 1 μM, read-out: Rabbit reticulocyte IC50 (μM/% inhib.). In a few lines:
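Nuclease-treated rabbit reticulocyte lysate translating luciferase control RNA, with complete amino acids, was incubated at 30° C. for 90 minutes with 2-fold serial compound dilutions. Luminescence was measured after adding luciferase reagent. % inhibition was relative to water controls, with no-RNA wells as background.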

A further experiment relates to A. baumannii (Ab). Kind of experiment: Broth microdilution minimum inhibitory concentration (MIC). In kind it is cell-based. The conditions noted are these: for MIC: Acinetobacter baumannii, read-out: Ab + bicarb MIC. The method in brief:
(§1)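 Following CLSI M07-A9 with minor changes, growth medium was cation-adjusted Mueller-Hinton broth, alone or supplemented with bicarbonate (6.25 or 25 mM) or heat-inactivated human serum up to 50%. Each compound was tested over eight two-fold dilutions against 5×10^4 CFU per well.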
A general note: Dilution methods test growth across graded concentrations, often in twofold steps.

Another experiment concerns E. coli (Ec). The experiment is described as above. In kind it is cell-based. The settings on record: for MIC: Escherichia coli, read-out: E. coli + bicarb MIC. In a few lines: as §1
For a further experiment, the system named is E. faecalis (Ef). Described as above. The conditions noted are these: for MIC: Enterococcus faecalis, read-out: Ef + bicarb MIC. In kind it is cell-based. In a few lines:
as §1

A further experiment concerns P. aeruginosa (Pa). The description is as above. In kind it is cell-based. The settings on record: for MIC: Pseudomonas aeruginosa, read-out: Pa MIC + bicarb. The method in brief:
as §1

For the next experiment, the system named is S. aureus (Sa). The description is as above. In kind it is cell-based. The conditions noted are these: for MIC: Staphylococcus aureus, read-out: Sa + bicarb MIC. The method in brief:
as §1

The mark [3] stands for this setting: A. baumannii, growth medium with sodium bicarbonate.
The mark [4] stands for this setting: E. coli, growth medium with sodium bicarbonate.
Where [5] appears, read: E. faecalis, growth medium with sodium bicarbonate.
[6] abbreviates: P. aeruginosa, growth medium with sodium bicarbonate.
Setting [7] is: S. aureus, growth medium with sodium bicarbonate.

Data on 14 compounds can be found in US12503452B2 (Curza Global, LLC, priority 2019, dated 2025).

Counter-ions that a name gives are not always drawn. Like-named read-outs stand apart in the source and are kept apart here.

A word on the MIC: it is the least concentration at which growth counts as inhibited.

With `CC(C)N(Cc1ccc(-n2ccc(NC(=O)N3CCN(C(=O)C(C)(C)N)CC3)nc2=O)cc1)C1CCC(N)CC1` (centres unmarked) [Compound 356], the IC50 in experiment [1] and in experiment [2] was over 1 µM in each case. Moreover, the MIC in the experiment on A. baumannii (Ab) (setting [3]), in the experiment on E. coli (Ec) (setting [4]), in the experiment with E. faecalis (Ef) (setting [5]), with P. aeruginosa (Pa) (setting [6]) and in the experiment on S. aureus (Sa) (setting [7]) was over 32 µg/mL in each case.

As for `CCN(Cc1ccc(-n2ccc(NC(=O)N3CCN(C(=O)[C@H](C)N)CC3)nc2=O)cc1)C1CCC(N)CC1` (some centres unmarked) [Compound 357], the figures for the IC50 in experiment [1] and in experiment [2] were under 0.5 µM and over 1 µM, respectively. In addition, the minimal inhibitory concentration (MIC) is over 32 µg/mL in the experiment on A. baumannii (Ab) (setting [3]); under 8 µg/mL with E. coli (Ec) (setting [4]); 8 to 32 µg/mL with E. faecalis (Ef) (setting [5]); over 32 µg/mL in the experiment with P. aeruginosa (Pa) (setting [6]); under 8 µg/mL in the experiment with S. aureus (Sa) (setting [7]).

For the compound `CCN(Cc1ccc(-n2ccc(NC(=O)N3CCN(C(=O)[C@@H](C)N)CC3)nc2=O)cc1)C1CCC(N)CC1` (some centres unmarked) [Compound 358], the IC50 in experiment [1] was 0.5 to 1 µM; in experiment [2], over 1 µM. For the same compound, the MIC in the experiment on A. baumannii (Ab) (setting [3]) is over 32 µg/mL; in the experiment on E. coli (Ec) (setting [4]), under 8 µg/mL; in the experiment with E. faecalis (Ef) (setting [5]) it was 8 to 32 µg/mL; in the experiment with P. aeruginosa (Pa) (setting [6]), over 32 µg/mL; in the experiment on S. aureus (Sa) (setting [7]) it was under 8 µg/mL.

`CCN(Cc1ccc(-n2ccc(NC(=O)N3CCN(C(=O)[C@@H](C)NC(=O)[C@@H](C)N)CC3)nc2=O)cc1)C1CCC(N)CC1` (some centres unmarked) [Compound 359]: the IC50 in experiment [1] and in experiment [2] was over 1 µM in each case. Moreover, the minimal inhibitory concentration (MIC) in the experiment with A. baumannii (Ab) (setting [3]) is over 32 µg/mL; in the experiment on E. coli (Ec) (setting [4]), over 32 µg/mL; in the experiment with E. faecalis (Ef) (setting [5]) it was over 32 µg/mL; in the experiment on P. aeruginosa (Pa) (setting [6]), over 32 µg/mL; in the experiment on S. aureus (Sa) (setting [7]) it was 8 to 32 µg/mL.

In the case of `CC(C)(N)C(=O)N1CCN(C(=O)Nc2ccn(-c3ccc(CN4CCCC(N)CC4)cc3)c(=O)n2)CC1` (centres unmarked) [Compound 365, hydrochloride salt], the IC50 was under 0.5 µM in experiment [1] and over 1 µM in experiment [2]. The MIC with A. baumannii (Ab) was over 32 µg/mL; in the experiment on E. coli (Ec), under 8 µg/mL; with E. faecalis (Ef), under 8 µg/mL; in the experiment with P. aeruginosa (Pa), over 32 µg/mL; with S. aureus (Sa), under 8 µg/mL.

Turning to `CC(C)(N)C(=O)N1CCN(C(=O)Nc2ccn(-c3ccc(CN4CCC(C5CNC5)CC4)cc3)c(=O)n2)CC1` [Compound 370, hydrochloride salt], the IC50 in experiment [1] is under 0.5 µM; in experiment [2], over 1 µM. The minimum inhibitory concentration (MIC) was over 32 µg/mL in the experiment with A. baumannii (Ab); under 8 µg/mL in the experiment on E. coli (Ec); under 8 µg/mL in the experiment with E. faecalis (Ef); over 32 µg/mL in the experiment with P. aeruginosa (Pa); under 8 µg/mL with S. aureus (Sa).

`CC(C)(N)C(=O)N1CCN(C(=O)Nc2ccn(-c3ccc(CCN4CC(C5CCNCC5)C4)cc3)c(=O)n2)CC1` [Compound 372]: the IC50 in experiment [1] and in experiment [2] was over 1 µM throughout. The minimum inhibitory concentration (MIC) with A. baumannii (Ab) (setting [3]) is over 32 µg/mL; in the experiment with E. coli (Ec) (setting [4]), under 8 µg/mL; in the experiment with E. faecalis (Ef) (setting [5]), over 32 µg/mL; with P. aeruginosa (Pa) (setting [6]), over 32 µg/mL; in the experiment with S. aureus (Sa) (setting [7]), under 8 µg/mL.

Consider `CC(C)(N)C(=O)N1CCN(C(=O)Nc2ccn(-c3ccc(CC4(N5CCC(N)CC5)CC4)cc3)c(=O)n2)CC1` [Compound 373], for which the IC50 in experiment [1] and in experiment [2] was over 1 µM in each case. The minimal inhibitory concentration (MIC) was over 32 µg/mL in the experiment on A. baumannii (Ab) (setting [3]); under 8 µg/mL in the experiment on E. coli (Ec) (setting [4]); 8 to 32 µg/mL in the experiment with E. faecalis (Ef) (setting [5]); over 32 µg/mL with P. aeruginosa (Pa) (setting [6]); under 8 µg/mL with S. aureus (Sa) (setting [7]).

Regarding `CC(C)(N)C(=O)N1CCN(C(=O)Nc2ccn(-c3ccc(CNCC4CNC4)cc3)c(=O)n2)CC1` [Compound 374], the IC50 was under 0.5 µM in experiment [1] and over 1 µM in experiment [2]. For the same compound, in the experiment on A. baumannii (Ab) (setting [3]), the “Ab + bicarb MIC” value is “+ (An MIC value (μg/mL) that is 32 μg/mL or greater)”. Moreover, the MIC was under 8 µg/mL in the experiment on E. coli (Ec) (setting [4]), 8 to 32 µg/mL in the experiment on E. faecalis (Ef) (setting [5]), over 32 µg/mL in the experiment with P. aeruginosa (Pa) (setting [6]) and 8 to 32 µg/mL in the experiment on S. aureus (Sa) (setting [7]).

For the compound `CC(C)(N)C(=O)N1CCN(C(=O)Nc2ccn(-c3ccc(CN4CC(C5CCNCC5)C4)cc3)c(=O)n2)CC1` [Compound 377], the IC50 in experiment [1] is under 0.5 µM; in experiment [2], over 1 µM. The MIC was over 32 µg/mL with A. baumannii (Ab) (setting [3]); under 8 µg/mL with E. coli (Ec) (setting [4]); over 32 µg/mL in the experiment on E. faecalis (Ef) (setting [5]); over 32 µg/mL in the experiment on P. aeruginosa (Pa) (setting [6]); under 8 µg/mL in the experiment with S. aureus (Sa) (setting [7]).

Take `CC(Cc1ccc(-n2ccc(NC(=O)N3CCN(C(=O)C(C)(C)N)CC3)nc2=O)cc1)N1CC[C@H](CN)C1` (some centres unmarked) [Compound 378]: the values for the IC50 in experiment [1] and in experiment [2] were under 0.5 µM and over 1 µM, respectively. In the experiment on A. baumannii (Ab) (setting [3]), the “Ab + bicarb MIC” value was “+ (An MIC value (μg/mL) that is 32 μg/mL or greater)”. In addition, the “E. coli + bicarb MIC” value in the experiment with E. coli (Ec) (setting [4]) is “+++ (An MIC value (μg/mL) that is less than 8 μg/mL)”. Also, the “Ef + bicarb MIC” value in the experiment on E. faecalis (Ef) (setting [5]) is “++ (An MIC value (μg/mL) that is 8 μg/mL or greater and less than 32 μg/mL)”. The “Pa MIC + bicarb” value in the experiment with P. aeruginosa (Pa) (setting [6]) is given as “+ (An MIC value (μg/mL) that is 32 μg/mL or greater)”. The “Sa + bicarb MIC” value in the experiment on S. aureus (Sa) (setting [7]) is on record as “+++ (An MIC value (μg/mL) that is less than 8 μg/mL)”.

As to `CC(Cc1ccc(-n2ccc(NC(=O)N3CCN(C(=O)C(C)(C)N)CC3)nc2=O)cc1)N1CCC(C2CNC2)CC1` (centres unmarked) [Compound 379], the IC50 in experiment [1] and in experiment [2] was over 1 µM in each case. Besides, the MIC with A. baumannii (Ab) (setting [3]) was over 32 µg/mL; with E. coli (Ec) (setting [4]), under 8 µg/mL; in the experiment on E. faecalis (Ef) (setting [5]), over 32 µg/mL; in the experiment with P. aeruginosa (Pa) (setting [6]), over 32 µg/mL; in the experiment with S. aureus (Sa) (setting [7]), under 8 µg/mL.

Take `CC(C)(N)C(=O)N1CCN(C(=O)Nc2ccn(-c3ccc(CN4CC(N5CC(N)C5)C4)cc3)c(=O)n2)CC1` [Compound 380]: the IC50 is under 0.5 µM in experiment [1] and over 1 µM in experiment [2]. For the same compound, the MIC in the experiment with A. baumannii (Ab) (setting [3]) is over 32 µg/mL; in the experiment with E. coli (Ec) (setting [4]), under 8 µg/mL; in the experiment with E. faecalis (Ef) (setting [5]) it was 8 to 32 µg/mL; in the experiment with P. aeruginosa (Pa) (setting [6]), over 32 µg/mL; in the experiment with S. aureus (Sa) (setting [7]), under 8 µg/mL.

Consider `CC(Cc1ccc(-n2ccc(NC(=O)N3CCN(C(=O)C(C)(C)N)CC3)nc2=O)cc1)N1CC[C@@H](CN)C1` (some centres unmarked) [Compound 382], for which the IC50 in experiment [1] was under 0.5 µM; in experiment [2] it was over 1 µM. Also, the MIC in the experiment with A. baumannii (Ab) (setting [3]) was over 32 µg/mL; with E. coli (Ec) (setting [4]) it was under 8 µg/mL; in the experiment with E. faecalis (Ef) (setting [5]), under 8 µg/mL; in the experiment with P. aeruginosa (Pa) (setting [6]), 8 to 32 µg/mL; in the experiment on S. aureus (Sa) (setting [7]), under 8 µg/mL.
